Drawing on patent publication US7666875B2, “Hydantoin compounds” (Eisai R&D Management Co., Ltd., priority 2005, dated 2010), this text covers IC50 for 57 molecules.

The target of one experiment is T1, human T-bet (Homo sapiens, UniProt Q9UL17).
T1 construct: expressed in transfected cells; host or cells: engineered HEK cells (HEKT-bet)
T1 sequence (Q9UL17 1-535): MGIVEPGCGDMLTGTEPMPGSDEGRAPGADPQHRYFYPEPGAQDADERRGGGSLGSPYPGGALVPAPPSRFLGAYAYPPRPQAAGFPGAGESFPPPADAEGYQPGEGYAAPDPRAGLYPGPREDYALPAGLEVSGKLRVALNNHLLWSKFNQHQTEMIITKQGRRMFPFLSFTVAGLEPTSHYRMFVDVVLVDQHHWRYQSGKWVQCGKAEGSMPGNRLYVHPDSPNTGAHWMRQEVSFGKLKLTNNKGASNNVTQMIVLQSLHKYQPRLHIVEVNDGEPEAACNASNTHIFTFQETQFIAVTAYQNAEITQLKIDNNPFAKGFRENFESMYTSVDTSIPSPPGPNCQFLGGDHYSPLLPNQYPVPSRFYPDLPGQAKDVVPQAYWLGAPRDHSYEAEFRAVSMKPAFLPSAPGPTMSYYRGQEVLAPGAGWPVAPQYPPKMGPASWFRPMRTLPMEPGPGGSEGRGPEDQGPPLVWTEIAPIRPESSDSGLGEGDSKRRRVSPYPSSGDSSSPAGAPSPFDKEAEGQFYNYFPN
Nature of the experiment: HEKT-bet-luc assay (T-bet dependent luciferase reporter in engineered HEK cells). In kind it is cell-based. As to conditions: Table 3; HEKT-bet cells, compound 24 hours; IC50 normalized to reference ER-213038; read-out: IC50. As to the method: HEKT-bet-luc assay: This assay measures a T-bet dependent reporter (luciferase) activity in engineered HEK cells that express a human T-bet and a T-box responsive element driving luciferase reporter. HEKT-bet cells were plated at 2×10^4/well in 96-well plate and compound was added into cell culture for 24 hours. Luciferase activity was measured by adding 50 μl of Steady-Glo reagent (Promega) and samples were read in Victor V reader (PerkinElmer). The IC50 values were calculated utilizing a maximum value corresponding to the amount of luciferase in the absence of a test compound and a minimum value corresponding to a test compound value obtained at maximum inhibition.
Determination of Normalized HEKT-bet IC50 values: Compounds were assayed in microtiter plates. Each plate included a reference compound which was ER-213038. The un-normalized IC50 value for a particular compound was divided by the IC50 value determined for the reference compound in the same microtiter plate to provide a relative potency value. The relative potency value was then multiplied by the established potency of the reference compound to provide the normalized HEKT-bet IC50 value. […] The IC50 values provided herein were obtained using this normalization method.
Background: Reporter assays use an easily measured gene product as a stand-in for the process of interest.
With `COCCN1C(=O)N(CCCCOc2ccccc2)C(=O)C12CCN(Cc1ccccc1)CC2` [Example 117], the IC50 (commonly the point on the concentration scale where inhibition reaches its midpoint) is 1840 nM.

In the case of `COCCN1C(=O)N(Cc2cccc(OC)c2)C(=O)C12CCN(CC=C(c1ccccc1)c1ccccc1)CC2` [Example 110], the half-maximal inhibitory concentration (IC50) came out at 1540 nM.

As to `COc1cccc(CN2C(=O)N(Cc3cccc4cccnc34)C3(CCN(Cc4cccc5ccccc45)CC3)C2=O)c1` [Example 105], the IC50 came to 1390 nM.

Regarding `COCCN1C(=O)N(Cc2cccc(OC)c2)C(=O)C12CCN(CC(=O)C13CC4CC(CC(C4)C1)C3)CC2` [Example 113], the IC50 amounted to 1650 nM.

For the molecule `COCCN1C(=O)N(CCOCc2ccccc2)C(=O)C12CCN(Cc1ccccc1)CC2` [Example 119], the IC50 worked out at 1930 nM.

Regarding `COCCN1C(=O)N(Cc2cccc(OC)c2)C(=O)C12CCN(Cc1c(Cl)cccc1Cl)CC2` [Example 87], the IC50 stood at 782 nM.

In the case of `COCCN1C(=O)N(CCCc2cccnc2)C(=O)C12CCN(Cc1ccnc3ccccc13)CC2` [Example 81], the IC50 stood at 650 nM.

For `COc1cc(CN2CCC3(CC2)C(=O)N(Cc2cc(OC)cc(OC)c2)C(=O)N3CSC)cc(OC)c1` [Example 99], the IC50 is 1150 nM.

Turning to `COc1cccc(CN2C(=O)N(CC=C(C)C)C3(CCN(Cc4ccccc4)CC3)C2=O)c1` [Example 109], the IC50 was found to be 1520 nM.

In the case of `COCCN1C(=O)N(Cc2ccoc2)C(=O)C12CCN(Cc1cc(OC)cc(OC)c1)CC2` [Example 94], the IC50 amounted to 936 nM.

In the case of `COc1cccc(CN2C(=O)N(Cc3cccc(C#N)c3)C3(CCN(Cc4ccccc4)CC3)C2=O)c1` [Example 98], the IC50 came to 1100 nM.

In the case of `COCCN1C(=O)N(Cc2cccc(OC)c2)C(=O)C12CCN(Cc1cccc3nsnc13)CC2` [Example 101], the IC50 turned out to be 1240 nM.

The experiment is the same for the next values; noted with them: Table 4; HEKT-bet cells, compound 24 hours; IC50 normalized to reference ER-213038; read-out: IC50.
In the case of `COc1cccc(CN2CCC3(CC2)NC(=O)N(C/C=C/c2ccccc2)C3=O)c1` [Example 174], the IC50 was found to be 198 nM.

`COCCN1C(=O)N(Cc2cccc(OC)c2)C(=O)C12CCN(Cc1ccc3c(c1)Cc1ccccc1-3)CC2` [Example 257]: the IC50 came out at 479 nM.

For `CCN1C(=O)N(CCCc2ccccc2)C(=O)C12CCN(Cc1cccc3ccccc13)CC2` [Example 280], the IC50 turned out to be 546 nM.

Take `COCCN1C(=O)N(CCCc2ccccc2OC)C(=O)C12CCN(Cc1ccccc1)CC2` [Example 291]: the IC50 was determined as 572 nM.

In the case of `COCCN1C(=O)N(Cc2cccc(OC)c2)C(=O)C12CCN(Cc1cccc(N(C)C)c1)CC2` [Example 274], the IC50 was determined as 528 nM.

`COCN1C(=O)N(/C=C/Cc2ccccc2)C(=O)C12CCN(Cc1cc(OC)cc(OC)c1)CC2` [Example 296]: the IC50 was determined as 586 nM.

On to `COCCN1C(=O)N(CCCOc2ccccc2)C(=O)C12CCN(Cc1cccc3ccccc13)CC2` [Example 153], for which the IC50 was 151 nM.

With `CCN1C(=O)N(Cc2ccc3ccccc3c2)C(=O)C12CCN(Cc1cc(OC)cc(OC)c1)CC2` [Example 177], the IC50 came out at 205 nM.

Consider `COCCN1C(=O)N(Cc2cccc(OC)c2)C(=O)C12CCN(Cc1c(C)cc(C)cc1C)CC2` [Example 186], for which the IC50 was 236 nM.

`COc1cc(CN2CCC3(CC2)C(=O)N(C/C=C/c2ccccc2)C(=O)N3Cc2cccc(-n3cccc3)c2)cc(OC)c1` [Example 126]: the IC50 was 73 nM.

As to `COCCN1C(=O)N(Cc2ccc3ccccc3c2)C(=O)C12CCN(Cc1cccc(C)c1)CC2` [Example 162], the IC50 was found to be 172 nM.

Take `COCCN1C(=O)N(Cc2cccc(OC)c2)C(=O)C12CCN(Cc1cccc(OC)c1F)CC2` [Example 301]: the IC50 amounted to 599 nM.

In the case of `COc1cccc(CN2C(=O)N(Cc3ccccc3)C3(CCN(Cc4cc(OC)cc(OC)c4)CC3)C2=O)c1` [Example 293], the IC50 is 579 nM.

For the molecule `COCCN1C(=O)N(Cc2cccc(OC)c2)C(=O)C12CCN(Cc1cccc(-c3cccc(OC)c3)c1)CC2` [Example 259], the IC50 is 484 nM.

In the case of `COCCN1C(=O)N(Cc2cccc(OC)c2)C(=O)C12CCN(Cc1cccc(-c3ccoc3)c1)CC2` [Example 258], the IC50 amounted to 481 nM.

For `COCCN1C(=O)N(Cc2cccc(OC)c2)C(=O)C12CCN(Cc1cccc3ccccc13)CC2` [Example 133], the concentration for half-maximal inhibition (IC50) is 119 nM.

Turning to `COc1cccc(CN2C(=O)N(CCCO)C3(CCN(Cc4cccc5ccccc45)CC3)C2=O)c1` [Example 216], the IC50 amounted to 349 nM.

In the case of `COCCN1C(=O)N(Cc2cccc(OC)c2)C(=O)C12CCN(Cc1cccc3c1OCCO3)CC2` [Example 290], the IC50 turned out to be 568 nM.

For the molecule `COCN1C(=O)N(C/C=C/c2ccccc2)C(=O)C12CCN(Cc1cccc3ccccc13)CC2` [Example 206], the IC50 turned out to be 311 nM.

Turning to `COCCN1C(=O)N(Cc2cccc(OC)c2)C(=O)C12CCN(Cc1cccc(Cl)c1)CC2` [Example 235], the IC50 is 390 nM.

As for `COCCN1C(=O)N(C/C=C/c2cccc3ccccc23)C(=O)C12CCN(Cc1ccccc1)CC2` [Example 152], the IC50 stood at 149 nM.

Regarding `COCCN1C(=O)N(Cc2cccc(OC)c2)C(=O)C12CCN(Cc1cccc(Br)c1)CC2` [Example 159], the IC50 stood at 166 nM.

With `CCN1C(=O)N(CCc2cc(OC)cc(OC)c2)C(=O)C12CCN(Cc1cc(OC)cc(OC)c1)CC2` [Example 287], the IC50 was determined as 561 nM.

With `COCCN1C(=O)N(Cc2cccc(OC)c2)C(=O)C12CCN(Cc1ccccc1)CC2` [Example 234], the IC50 stood at 387 nM.

For the molecule `C=Cc1cccc(CN2CCC3(CC2)C(=O)N(Cc2cccc(OC)c2)C(=O)N3CCOC)c1` [Example 264], the IC50 turned out to be 500 nM.

`CCN1C(=O)N(Cc2cccc(OC)c2)C(=O)C12CCN(Cc1cccc3ccccc13)CC2` [Example 168]: the IC50 worked out at 190 nM.

As to `CCN1C(=O)N(Cc2cccc(OC)c2)C(=O)C12CCN(Cc1cccc(OC)c1)CC2` [Example 279], the IC50 was found to be 546 nM.

With `O=C1N(C/C=C/c2ccccc2)C(=O)C2(CCN(Cc3cccc4ccccc34)CC2)N1Cc1ccncc1` [Example 223], the IC50 stood at 371 nM.

In the case of `COCCN1C(=O)N(Cc2cccc(OC)c2)C(=O)C12CCN(Cc1cccc3c1Cc1ccccc1-3)CC2` [Example 169], the IC50 turned out to be 190 nM.

For `COCCN1C(=O)N(Cc2cccc(F)c2)C(=O)C12CCN(Cc1cc(OC)cc(OC)c1)CC2` [Example 163], the IC50 came out at 182 nM.

Consider `CCN1C(=O)N(CCCOc2ccccc2)C(=O)C12CCN(Cc1cccc(OC)c1)CC2` [Example 277], for which the IC50 amounted to 540 nM.

On to `O=C1N(/C=C/Cc2ccccc2)C(=O)C2(CCN(Cc3cccc4ccccc34)CC2)N1CCO` [Example 294], for which the IC50 is 579 nM.

Turning to `COc1cccc(CN2C(=O)N(Cc3cccc(OC)c3)C3(CCN(Cc4cc(OC)cc(OC)c4)CC3)C2=O)c1` [Example 202], the IC50 is 290 nM.

Turning to `COCCN1C(=O)N(Cc2cccc(OC)c2)C(=O)C12CCN(Cc1cc(C)c(C)cc1C)CC2` [Example 139], the IC50 was determined as 125 nM.

`COCCN1C(=O)N(Cc2cccc(OC)c2)C(=O)C12CCN(Cc1cccc(C)c1C)CC2` [Example 134]: the IC50 was found to be 120 nM.

In the case of `COCCN1C(=O)N(Cc2cccc(OC)c2)C(=O)C12CCN(Cc1cc(OC)c(Cl)cc1F)CC2` [Example 270], the IC50 turned out to be 518 nM.

Take `COc1cccc(CN2C(=O)N(Cc3ccc(-n4cccn4)cc3)C3(CCN(Cc4cc(OC)cc(OC)c4)CC3)C2=O)c1` [Example 155]: the IC50 was 159 nM.

For `COc1cccc(CN2C(=O)N(Cc3ccncc3)C3(CCN(Cc4cccc5ccccc45)CC3)C2=O)c1` [Example 138], the IC50 worked out at 125 nM.

In the case of `COCCN1C(=O)N(Cc2cccc(OC)c2)C(=O)C12CCN(Cc1cccc(-c3ccc(S(C)(=O)=O)cc3)c1)CC2` [Example 224], the IC50 turned out to be 371 nM.

As for `COCCN1C(=O)N(Cc2cccc(OC)c2)C(=O)C12CCN(Cc1cccc3ccccc13)CC2` [Example 191], the IC50 was 253 nM.

For the molecule `COCN1C(=O)N(Cc2cc(OC)cc(OC)c2)C(=O)C12CCN(Cc1cc(OC)cc(OC)c1)CC2` [Example 154], the IC50 worked out at 153 nM.

In the case of `COCCN1C(=O)N(Cc2cccc(OC)c2)C(=O)C12CCN(Cc1csc3ccccc13)CC2` [Example 172], the IC50 was found to be 193 nM.

As to `COCCN1C(=O)N(CCCc2ccccc2)C(=O)C12CCN(Cc1cccc(OC)c1)CC2` [Example 300], the IC50 turned out to be 598 nM.

`COCCN1C(=O)N(Cc2cccc(OC)c2)C(=O)C12CCN(Cc1c(C)c(C)c(C)c(C)c1C)CC2` [Example 164]: the IC50 is 182 nM.

Still in this experiment, the particulars now being: reference compound used for normalization on each microtiter plate; read-out: established potency of the reference compound (HEKT-bet IC50).
As to `COCCN1C(=O)N(Cc2cccc(OC)c2)C(=O)C12CCN(Cc1cccc(OC)c1)CC2` [Example 170], the IC50 amounted to 190 nM.
